Data taken from US9856216B2, “Compounds as TNIK, IKKε and TBK1 inhibitors and pharmaceutical composition comprising same” (GREEN CROSS CORPORATION, priority 2015, dated 2018).
Structures can show the parent of a compound that is named as a salt.

What follows are molecules tested against T1, TNIK (Homo sapiens, UniProt Q9UKE5) (assay: ADP-Glo Kinase Assay, inhibition activity on TNIK). Settings: not given.
T1 construct: purchased Promega V4158
Type: biochemical
Description: The inhibition activities on TNIK, IKKε and TBK1 were measured by a luminometer, TNIK/IKKε/TBK1 Kinase Enzyme System (Promega, Ca# V4158; Invitrogen, PR8031B, Promega, Ca# V3991) and ADP-Glo Kinase Assay using ADP-Glo™ Kinase Analysis Kit (Promega, Ca# V9101) and a kinase reaction buffer [40 mM Tris(pH 7.5), 20 mM MgCl2, 0.1 mg/mL BSA] in accordance with the manufacturer's protocol.

T1 sequence (Q9UKE5 1-367 limits assumed): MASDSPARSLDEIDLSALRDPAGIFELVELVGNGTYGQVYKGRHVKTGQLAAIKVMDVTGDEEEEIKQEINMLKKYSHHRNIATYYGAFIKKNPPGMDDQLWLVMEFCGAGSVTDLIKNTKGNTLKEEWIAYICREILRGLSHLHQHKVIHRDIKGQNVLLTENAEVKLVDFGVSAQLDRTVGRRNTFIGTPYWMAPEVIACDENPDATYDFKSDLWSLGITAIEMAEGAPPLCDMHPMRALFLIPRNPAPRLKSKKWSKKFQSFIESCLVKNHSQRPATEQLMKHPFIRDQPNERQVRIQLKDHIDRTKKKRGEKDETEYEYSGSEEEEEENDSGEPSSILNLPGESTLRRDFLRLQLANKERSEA

In the case of `CN(C)CCCNc1ccc(C(=O)Nc2ccc(-c3cccc(F)c3F)c3c2C(=O)NC3)cc1` [Example 368, N-(7-(2,3-difluorophenyl)-3-oxoisoindolin-4-yl)-4-((3-(dimethylamino)propyl)amino)benzamide], the “TNIK (μM)” value is reported as “Insoluble”.
With `O=C(Nc1ccc(-c2cccs2)c2c1C(=O)NC2)c1ccc(NCCO)cc1` [Example 371, 4-((2-Hydroxyethyl)amino)-N-(3-oxo-7-(thiophen-2-yl)isoindolin-4-yl)benzamide] the “TNIK (μM)” value was “Insoluble”.

Same assay, conditions: read-out: TNIK

Going from `O=C(Nc1cccc2c1C(=O)NC2)c1ccc(NCCN2CCCC2)cc1` [Example 346, N-(3-oxoisoindolin-4-yl)-4-((2-(pyrrolidin-1-yl)ethyl)amino) benzamide] to `O=C(Nc1ccc(-c2cccs2)c2c1C(=O)NC2)c1ccc(NCCN2CCCCC2)cc1` [Example 374, N-(3-oxo-7-(thiophen-2-yl)isoindolin-4-yl)-4-((2-(piperidin-1-yl)ethyl)amino)benzamide], the IC50 falls from 6170 nM to 480 nM (13-fold).

Compared with `COc1cccc(-c2ccc(NC(=O)c3ccc(OCCN4CCOCC4)cc3)c3c2CNC3=O)c1OC` [Example 347, N-(7-(2,3-dimethoxyphenyl)-3-oxoisoindolin-4-yl)-4-(2-morpholinoethoxy)benzamide], `COc1cccc(-c2ccc(NC(=O)c3ccc(NCCN4CCCCCC4)cc3)c3c2CNC3=O)c1OC` [Example 350, 4-((2-(Azepan-1-yl)ethyl)amino)-N-(7-(2,3-dimethoxyphenyl)-3-oxoisoindolin-4-yl)benzamide] is 3.3-fold lower in IC50: 200 nM for the first, 61 nM for the second.

Compared with `Nc1cccc(-c2ccc(NC(=O)c3ccc(NCCN4CCOCC4)cc3)c3c2CNC3=O)c1O` [Example 348, N-(7-(3-amino-2-hydroxyphenyl)-3-oxoisoindolin-4-yl)-4-((2-morpholinoethyl)amino)benzamide], `O=C(Nc1ccc(-c2cccc(F)c2F)c2c1C(=O)NC2)c1ccc(NCCN2CCOCC2)cc1` [Example 359, N-(7-(2,3-difluorophenyl)-3-oxoisoindolin-4-yl)-4-((2-morpholinoethyl)amino)benzamide] is 19-fold lower in IC50: 3180 nM for the first, 170 nM for the second.

`COc1ccccc1-c1ccc(NC(=O)c2ccc(NCCN3CCCCCC3)cc2)c2c1CNC2=O` [Example 349, 4-((2-(Azepan-1-yl)ethyl)amino)-N-(7-(2-methoxyphenyl)-3-oxoisoindolin-4-yl)benzamide] and `COc1ccccc1-c1ccc(NC(=O)c2ccc(NCCN3CCCCC3)cc2)c2c1CNC2=O` [Example 361, N-(7-(2-methoxyphenyl)-3-oxoisoindolin-4-yl)-4-((2-(piperidin-1-yl)ethyl)amino)benzamide] are within 1.5-fold of each other in IC50: 240 nM for the first, 170 nM for the second.

Compared with `CN(C)CCCNc1ccc(C(=O)Nc2ccc(-c3ccccc3O)c3c2C(=O)NC3)cc1` [Example 351, 4-((3-(Dimethylamino)propyl)amino)-N-(7-(2-hydroxyphenyl)-3-oxoisoindolin-4-yl)benzamide], `O=C(Nc1ccc(-c2ccccc2O)c2c1C(=O)NC2)c1ccc(NCCCO)cc1` [Example 355] is 1.6-fold lower in IC50: 960 nM for the first, 590 nM for the second.

Compared with `COc1ccccc1-c1ccc(NC(=O)c2ccc(NCCO)cc2)c2c1CNC2=O` [Example 352, 4-((2-Hydroxyethyl)amino)-N-(7-(2-methoxyphenyl)-3-oxoisoindolin-4-yl)benzamide], `COc1ccccc1-c1ccc(NC(=O)c2ccc(NCCCO)cc2)c2c1CNC2=O` [Example 354] is 2.6-fold higher in IC50: 84 nM for the first, 220 nM for the second.

Compared with `O=C(Nc1ccc(-c2ccccc2O)c2c1C(=O)NC2)c1ccc(NCCO)cc1` [Example 353, 4-((2-Hydroxyethyl)amino)-N-(7-(2-hydroxyphenyl)-3-oxoisoindolin-4-yl)benzamide], `O=C(Nc1ccc(-c2ccccc2O)c2c1C(=O)NC2)c1ccc(NCCCCO)cc1` [Example 357, 4-((4-Hydroxybutyl)amino)-N-(7-(2-hydroxyphenyl)-3-oxoisoindolin-4-yl)benzamide] is 1.7-fold higher in IC50: 370 nM for the first, 640 nM for the second. The first is the more potent here.

Going from `COc1ccccc1-c1ccc(NC(=O)c2ccc(NCCCCO)cc2)c2c1CNC2=O` [Example 356, 4-((4-Hydroxybutyl)amino)-N-(7-(2-methoxyphenyl)-3-oxoisoindolin-4-yl)benzamide] to `O=C(Nc1ccc(-c2ccccc2)c2c1C(=O)NC2)c1ccc(NCCCCO)cc1` [Example 383, 4-((4-Hydroxybutyl)amino)-N-(3-oxo-7-phenylisoindolin-4-yl) benzamide], the IC50 rises from 250 nM to 380 nM (1.5-fold). The first is the more potent here.

Going from `CNCCN(C)c1ccc(C(=O)Nc2ccc(-c3ccccc3)c3c2C(=O)NC3)cc1` [Example 358, 4-(Methyl(2-(methylamino)ethyl)amino)-N-(3-oxo-7-phenylisoindolin-4-yl)benzamide] to `CN(C)CCNc1ccc(C(=O)Nc2ccc(-c3ccccc3)c3c2C(=O)NC3)cc1` [Example 362, 4-((2-(Dimethylamino)ethyl)amino)-N-(3-oxo-7-phenylisoindolin-4-yl)benzamide], the IC50 falls from 1100 nM to 490 nM (2.2-fold). The second is the more potent here.

First: O=C(Nc1ccc(-c2ccccc2)c2c1C(=O)NC2)c1ccc(NCCN2CCCCC2)cc1 [Example 360, N-(3-oxo-7-phenylisoindolin-4-yl)-4-((2-(piperidin-1-yl)ethyl)amino)benzamide]
Second: O=C(Nc1ccc(-c2ccccc2)c2c1C(=O)NC2)c1ccc(NCCN2CCCCCC2)cc1 [Example 369, 4-((2-(Azepan-1-yl)ethyl)amino)-N-(3-oxo-7-phenylisoindolin-4-yl)benzamide]
The IC50 of the first is 1.8-fold lower: 320 nM for the first, 560 nM for the second. The first is the more potent here.

Compared with `O=C(Nc1ccc(-c2ccccc2)c2c1C(=O)NC2)c1ccc(NCCCN2CCCC2)cc1` [Example 363, N-(3-oxo-7-phenylisoindolin-4-yl)-4-((3-(pyrrolidin-1-yl)propyl)amino)benzamide], `O=C(Nc1ccc(-c2ccccc2)c2c1C(=O)NC2)c1ccc(NCCCN2CCCCC2)cc1` [Example 370, N-(3-oxo-7-phenylisoindolin-4-yl)-4-((3-(piperidin-1-yl)propyl)amino)benzamide] is 1.5-fold higher in IC50: 330 nM for the first, 510 nM for the second.

`O=C(Nc1ccc(-c2cccc(F)c2F)c2c1C(=O)NC2)c1ccc(NCCN2CCCC2)cc1` [Example 364, N-(7-(2,3-difluorophenyl)-3-oxoisoindolin-4-yl)-4-((2-(pyrrolidin-1-yl)ethyl)amino)benzamide] and `O=C(Nc1ccc(-c2cccc(F)c2F)c2c1C(=O)NC2)c1ccc(NCCCN2CCCC2)cc1` [Example 366, N-(7-(2,3-difluorophenyl)-3-oxoisoindolin-4-yl)-4-((3-(pyrrolidin-1-yl)propyl)amino)benzamide hydrochloride] are within 1.5-fold of each other in IC50: 180 nM for the first, 170 nM for the second.

First: O=C(Nc1ccc(-c2cccc(F)c2F)c2c1C(=O)NC2)c1ccc(NCCN2CCCC2)cc1 [Example 365, N-(7-(2,3-difluorophenyl)-3-oxoisoindolin-4-yl)-4-((2-(pyrrolidin-1-yl)ethyl)amino)benzamide hydrochloride]
Second: Cc1nc2cccc(-c3ccc(NC(=O)c4ccc(NCCN5CCCC5)cc4)c4c3CNC4=O)c2o1 [Example 377, N-(7-(2-methylbenzo[d]oxazol-7-yl)-3-oxoisoindolin-4-yl)-4-((2-(pyrrolidin-1-yl)ethyl)amino)benzamide]
The IC50 of the first is 2.1-fold lower: 170 nM for the first, 360 nM for the second. The first is the more potent here.

`CN(C)CCNc1ccc(C(=O)Nc2ccc(-c3cccc(F)c3F)c3c2C(=O)NC3)cc1` [Example 367, N-(7-(2,3-difluorophenyl)-3-oxoisoindolin-4-yl)-4-((2-(dimethylamino)ethyl)amino)benzamide] and `CN(C)CCNc1ccc(C(=O)Nc2ccc(-c3cccs3)c3c2C(=O)NC3)cc1` [Example 373, 4-((2-(Dimethylamino)ethyl)amino)-N-(3-oxo-7-(thiophen-2-yl)isoindolin-4-yl)benzamide] are within 1.5-fold of each other in IC50: 280 nM for the first, 400 nM for the second.

Compared with `COCCNc1ccc(C(=O)Nc2ccc(-c3cccs3)c3c2C(=O)NC3)cc1` [Example 372, 4-((2-Methoxyethyl)amino)-N-(3-oxo-7-(thiophen-2-yl)isoindolin-4-yl)benzamide], `CN1CCN(CCNc2ccc(C(=O)Nc3ccc(-c4cccs4)c4c3C(=O)NC4)cc2)CC1` [Example 378, 4-((2-(4-Methylpiperazin-1-yl)ethyl)amino)-N-(3-oxo-7-(thiophen-2-yl)isoindolin-4-yl)benzamide] is 10-fold lower in IC50: 1360 nM for the first, 130 nM for the second.

Going from `O=C(Nc1ccc(-c2cccs2)c2c1C(=O)NC2)c1ccc(NCCN2CCOCC2)cc1` [Example 375, 4-((2-Morpholinoethyl)amino)-N-(3-oxo-7-(thiophen-2-yl)isoindolin-4-yl) benzamide] to `CN1CCN(CCNc2ccc(C(=O)Nc3ccc(-c4ccccc4)c4c3C(=O)NC4)cc2)CC1` [Example 379, 4-((2-(4-Methylpiperazin-1-yl)ethyl)amino)-N-(3-oxo-7-phenylisoindolin-4-yl)benzamide], the IC50 falls from 540 nM to 350 nM (1.5-fold).

First: O=C(Nc1ccc(-c2cccc3ncoc23)c2c1C(=O)NC2)c1ccc(NCCN2CCCC2)cc1 [Example 376, N-(7-(benzo[d]oxazol-7-yl)-3-oxoisoindolin-4-yl)-4-((2-(pyrrolidin-1-yl)ethyl)amino)benzamide]
Second: O=C(Nc1ccc(-c2cc3ccccc3o2)c2c1C(=O)NC2)c1ccc(NCCN2CCCC2)cc1 [Example 384, N-(7-(benzofuran-2-yl)-3-oxoisoindolin-4-yl)-4-((2-(pyrrolidin-1-yl)ethyl)amino)benzamide]
The IC50 of the first is 15-fold lower: 72 nM for the first, 1110 nM for the second.

`O=C(Nc1ccc(-c2ccccc2)c2c1C(=O)NC2)c1ccc(NCCO)cc1` [Example 380, 4-((2-Hydroxyethyl)amino)-N-(3-oxo-7-phenylisoindolin-4-yl) benzamide] and `O=C(Nc1ccc(-c2ccccc2)c2c1C(=O)NC2)c1ccc(NCCCO)cc1` [Example 382, 4-((3-Hydroxypropyl)amino)-N-(3-oxo-7-phenylisoindolin-4-yl) benzamide] are within 1.5-fold of each other in IC50: 230 nM for the first, 330 nM for the second.

In the case of `CN(C)CCCNc1ccc(C(=O)Nc2ccc(-c3ccccc3)c3c2C(=O)NC3)cc1` [Example 381, 4-((3-(Dimethylamino)propyl)amino)-N-(3-oxo-7-phenylisoindolin-4-yl) benzamide], the IC50 is reported as 310 nM.
